Read-outs that look alike come from different tables or passages of the source. Positions of bridges follow the written chain, without caps; N, C: chain ends. No end group written: not given here.
How the values were obtained:
[1] = biological target: human plasma kallikrein (Homo sapiens, UniProt P03952); test: Kallikrein inhibition assay (residual HPK activity, fluorogenic substrate Z-Phe-Arg-AMC); type: biochemical
[2] = the molecule shown is the open-chain precursor, crosslinker bond, 31-membered ring
[3] = TBMB/NH4HCO3, aq NH4HCO3 (pH 8)/MeCN, 1.67 mM

Sequence of human plasma kallikrein (P03952 391-638 limits assumed): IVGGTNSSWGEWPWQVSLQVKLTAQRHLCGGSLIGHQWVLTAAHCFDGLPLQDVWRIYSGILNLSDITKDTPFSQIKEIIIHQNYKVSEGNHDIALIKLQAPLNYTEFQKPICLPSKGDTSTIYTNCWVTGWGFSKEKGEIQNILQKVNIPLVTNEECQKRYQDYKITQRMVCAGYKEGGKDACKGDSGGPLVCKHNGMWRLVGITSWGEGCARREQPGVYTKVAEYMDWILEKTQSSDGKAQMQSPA
Sequence of human plasma kallikrein (P03952 20-390 partner limits assumed): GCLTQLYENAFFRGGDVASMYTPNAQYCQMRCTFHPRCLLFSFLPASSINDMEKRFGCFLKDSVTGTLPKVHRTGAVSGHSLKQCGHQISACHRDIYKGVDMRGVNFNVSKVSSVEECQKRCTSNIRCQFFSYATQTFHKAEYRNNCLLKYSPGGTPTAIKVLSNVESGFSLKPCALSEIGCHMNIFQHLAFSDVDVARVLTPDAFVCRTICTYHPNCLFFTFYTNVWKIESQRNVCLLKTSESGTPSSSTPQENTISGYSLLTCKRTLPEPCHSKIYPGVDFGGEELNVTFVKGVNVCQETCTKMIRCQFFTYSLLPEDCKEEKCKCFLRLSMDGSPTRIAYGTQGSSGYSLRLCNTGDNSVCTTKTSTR

Substance	ring closure, yield after HPLC [2, 3]	further results
13: stereochemically scrambled bicyclic peptide mixture from cyclisation of 12 with trithiol 2 (ACSDRFRNCPADEALCG; linker 2-9-16 via 1,3,5‑tris(mercaptomethyl)benzene; also: mixture of 8 stereoisomers (D/L at Cys2, Cys9, Cys16)) [compound 13]	–	IC50 ([1]; crude reaction mixture of the conversion of 12 to 13, before purification, same kallikrein inhibition assay): 238 ± 21 nM; IC50 ([1]; purified peptide, HPK incubated 30 min at room temperature with bicyclic peptide, substrate Z-Phe-Arg-AMC, Tris 10 mM pH 7.4, NaCl, MgCl2, CaCl2, 0.1% BSA, 0.01% Triton X-100, 5% DMSO, ex 355 / em 460 nm, logistic fit): 144 ± 31 nM
H-Ala-Cys-Ser-Asp-Arg-Phe-Arg-Asn-Cys-Pro-Ala-Asp-Glu-Ala-Leu-Cys-Gly-NH2?	29%	–
H-Ala-Cys-Ser-Asp-Arg-Phe-Arg-Asn-Cys-Pro-Ala-Asp-Glu-Ala-Leu-dCys-Gly-NH2?	10%	–
H-Ala-Cys-Ser-Asp-Arg-Phe-Arg-Asn-dCys-Pro-Ala-Asp-Glu-Ala-Leu-Cys-Gly-NH2?	16%	–
H-Ala-Cys-Ser-Asp-Arg-Phe-Arg-Asn-dCys-Pro-Ala-Asp-Glu-Ala-Leu-dCys-Gly-NH2?	24%	–
H-Ala-Dha-Ser-Asp-Arg-Phe-Arg-Asn-Dha-Pro-Ala-Asp-Glu-Ala-Leu-Dha-Gly-NH2	–	ring closure, yield after HPLC ([2]; 1,3,5-tris(mercaptomethyl)benzene/K2CO3, H2O/DMF 1:1, 1.15 mM, 37.0 °C): 43%
H-Ala-dCys-Ser-Asp-Arg-Phe-Arg-Asn-Cys-Pro-Ala-Asp-Glu-Ala-Leu-Cys-Gly-NH2?	26%	–
H-Ala-dCys-Ser-Asp-Arg-Phe-Arg-Asn-Cys-Pro-Ala-Asp-Glu-Ala-Leu-dCys-Gly-NH2?	16%	–
H-Ala-dCys-Ser-Asp-Arg-Phe-Arg-Asn-dCys-Pro-Ala-Asp-Glu-Ala-Leu-Cys-Gly-NH2?	26%	–
H-Ala-dCys-Ser-Asp-Arg-Phe-Arg-Asn-dCys-Pro-Ala-Asp-Glu-Ala-Leu-dCys-Gly-NH2?	26%	–

Source: paper PMC4847484, “Chemical generation and modification of peptides containing multiple dehydroalanines” (Chemical Communications (Cambridge, England), 2015)
